Laboratory results from US8614246B2, “Indole derivatives for treating neurodegenerative diseases” (Centre National de la Recherche Scientifique (CNRS), priority 2009, dated 2013).

Legend:
[1] = tested on: dopaminergic neurons (TH+ neurons) in primary cultures of ventral mesencephalon; assay: Neuroprotection: counting of remaining TH+ neurons in primary cultures of ventral mesencephalon (spontaneous death of dopaminergic neurons); format: cell-based; details: Product 10 nM, 8 days culture, rat embryo ventral mesencephalon; untreated control = 100
Procedure: (§1) Dissection. Dissection consists of extracting embryos from the uterus of a rat after fifteen days of gestation. The brain of each embryo is then dissected under magnifying binoculars in order to extract the ventral mesencephalus.
(§2) Seeding. Mesencephalons are grouped in a flask containing 2 mL of L15 medium and then mechanically dissociated (30 repeat operations), 5 mL of L15 medium are added. The suspension is allowed to stand for 8 minutes. The 5 mL float is then recovered in a new flask and the cells are dissociated again (30 repeat operations). 5 mL of L15 is added again and the suspension is left to stand for 8 minutes. The 5 mL float is added to the previous float. The cells thus extracted are then centrifuged for 5 minutes at 1000 rpm^−1. The cell sediment is dissolved in a Neurobasal medium supplemented with 1% of B27, 1% of glutamine and 1% of a mixture of penicillin and streptomycin. The cells are then seeded at an appropriate dilution (0.6 embryos per well in 24-well plates and 0.4 per well in 48-well plates). The cultures are incubated at 37° C. in a wet atmosphere enriched with 5% CO2 in 24-well or 48-well plates.
(§3) Treatment. After 24 hours, two-thirds of the medium in each well is replaced by a new medium enriched with the product to be tested at the appropriate dilution. The medium is replaced in the same way after 4 days of culture.
(§4) Immunohistochemistry. After 8 days culture, the cells are fixed by a solution of 4% formaldehyde and then washed three times with PBS. The cells are then submitted to anti-tyrosine hydroxylase (TH) immunohistochemistry, developed by a secondary antibody coupled to a fluorophore emitting in the red (Cy3).
(§5) Analyses. Neuroprotection is evaluated by counting positive TH neurons with 10 fields per well directly under an inverted fluorescence microscope, reported as a percentage of the untreated control. Experiments are done on three wells per condition. Three independent experiments are done under these conditions. The total neuritic length per cell is calculated using Explora Nova's Neurite Outgrowth software on 60 to 100 neurons photographed independently per condition.
(§6) Primary cultures of ventral mesencephalon of rat embryos after 15.5 days of gestation under conditions causing spontaneous death of dopaminergic neurons, are maintained in the presence or absence of the compounds to be tested for 8 days. After fixing, the cultures are submitted to immunocytochemistry directed against tyrosine hydroxylase, a specific marker of dopaminergic neurons.
The neuroprotective potential of each compound is then estimated by counting the number of remaining neurons (TH^+ neurons) under a fluorescence microscope. The results for the different treatments are expressed as a percentage of the number of neurons remaining relative to untreated cultures (Control).
(§7) All experiments were done by comparison with a positive control, dibutyryl-AMP cyclic (db-AMPc) (Mourlevat S. et al. Mol. Pharmacol. 2003, 64 (3), 578-586).

[2] = tested on: dopaminergic neurons (TH+ neurons) in primary cultures of ventral mesencephalon; assay: Neuritogenesis: total neuritic length per dopaminergic neuron in primary cultures of ventral mesencephalon; format: cell-based; details: Product 10 nM, 8 days culture, rat embryo ventral mesencephalon; untreated control = 100
Procedure: as §1, §2, §3, §4, §5, §6
Neuritogenesis is quantified by measuring the total neuritic length per dopaminergic neuron (neuritic length/TH^+ neuron) using an image analyser on a minimum of sixty photographed neurons per condition (10-30% of all dopaminergic neurons).
as §7

[3] = tested on: reactive oxygen species (ROS) in neurones of ventral mesencephalon cultures; assay: Cellular test with dihydrorhodamine 123 (DHR-123); format: cell-based, rat; details: compounds 10 nM for eight days, 50 μM DHR-123 30 minutes; control = 100; Trolox at 10 μM per FIG. 1
Procedure: Dihydrorhodamine 123 or DHR123 is used as an indicator of reactive oxygen species (ROS). It is uncharged and not fluorescent and passes passively through the cellular membrane before being oxidised in contact with free radicals, into rhodamine 123 emitting green fluorescence.
The quantity of intracellular ROS is reduced when the cells are treated by an anti-oxidant. This reduction results in a quantifiable decay in emitted fluorescence in the presence of DHR123.
In order to conclude the role of the anti-oxidant capacity of compounds according to the invention in the observed neuroprotectrive activity, the cultures were placed strictly under the same conditions as for the neuroprotection/neuritogenesis test. Thus, the cultures were kept for eight days in the presence of a concentration of 10 nM of each of the tested tryptaminic derivatives. On the 8th day in vitro (DIV 8), 50 μM of DHR-123 (Sigma) was added and the cells were incubated for 30 minutes at 37° C. They were then washed three times, treated once again by compounds according to the invention and placed in a medium without any phenol red. Living fluorescent neurones that were immediately photographed can be observed, the fluorescence density per neurone being quantified under an inverted fluorescence microscope by an image analysis software.

[4] = Test with ABTS (anti-oxidant capacity, hydroxyl radicals generated by Fenton's reaction); format: biochemical; details: 30 minutes at ambient temperature, range 10 nM to 1 mM, read-out: IC50 ± SEM (concentration at which 50% of hydroxyl radicals have been reduced) (converted)
From the text: ABTS or 2,2′-azino-bis-(3-ethylbenzthiazoline-6-sulfonic) acid is a coloured indicator of the presence of hydroxyl radicals in solution. The attack of a hydroxyl radical on ABTS generates the formation of an ATBS^+. cation radical (Equation 1). This coloured entity makes the absorbance (Abs) of the solution equal to 450 nm. ABTS+HO. ? ABTS^+. +HO^− Equation 1
During the test, hydroxyl radicals are generated by Fenton's reaction in the presence of iron and hydrogen peroxide (Equation 2) H2O2+Fe^2+ ? HO. +HO^−+Fe^3+ Equation 2
When a radical trap or antioxidant is present in solution, competition with ABTS is set up for reduction of hydroxyl radicals, which reduces the absorbance (Abs) at 450 nm.
The percentage of hydroxyl radicals converted into hydroxyl ions (% conversion) by the compound of interest may be calculated using Formula 1: […]
The anti-oxidant capacity of a compound may then be expressed in the form of IC50 that reflects the concentration at which 50% of hydroxyl radicals have been reduced by the tested compound.
Thus, the compounds to be tested and Trolox® were solubilised in ethanol so as to obtain solutions at 1 mM. We used cascade dilutions to obtain a concentration range varying from 1 mM to 10 nM. 90 μL of a 1:1 water-ethanol mixture was then added onto an ELISA 96-well plate, followed by 15 μL of an aqueous solution of ABTS at 1 mM, 15 μL of an aqueous solution of Fe2SO4 at 0.5 mM, 15 μL of each compound to be tested at different concentrations, and then 15 μl of an aqueous solution of hydrogen peroxide at 100 mM. The mixtures thus obtained were stirred at ambient temperature sheltered from air for 30 minutes, and the value of the absorbance at […] was then measured. The capacity of each compound to reduce hydroxyl radicals is determined by the reduction in absorbance at 450 nm, the control solution being composed of pure ethanol. Therefore, the ABTS test was made in comparison with Trolox®. The same ranges from 10 nm to 1 mM of indoles 1a, 1c, 1g, 1i, 2a, 4c, 2g, 2h and 2i were tested.

CCCCCCCCCCCCCCCC(=O)NCCc1c[nH]c2ccccc12 [Compound 1c, N-(2-(1H-indol-3-yl)ethyl)hexadecanamide]
TH+ neurons, % relative to control ± SEM [1]: 121.3 ± 3.2 %
Neuritic length/TH+ neuron, % relative to control ± SEM [2]: 168.6 ± 11.5 %
IF/neurone (%) (fluorescence intensity per neurone) [3]: 55.9 ± 3.0 %

CCCCCCCCCCCCCCCCCCCC(=O)NCCc1c[nH]c2ccccc12 [Compound 1f, N-(2-(1H-indol-3-yl)ethyl)icosanamide]
TH+ neurons, % relative to control ± SEM [1]: 121.8 ± 2.0 %
Neuritic length/TH+ neuron, % relative to control ± SEM [2]: 147.4 ± 7.0 %

O=C(CCCCCCCCCCCCCCO)NCCc1c[nH]c2ccccc12 [Compound 1i, N-(2-(1H-indol-3-yl)ethyl)-15-hydroxypentadecanamide]
IF/neurone (%) (fluorescence intensity per neurone) [3]: 56.5 ± 2.7 %

CCCCCCCCCCCCCNCCc1c[nH]c2ccccc12 [Compound 2a, N-(2-(1H-indol-3-yl)ethyl)tridecan-1-amine]
IC50 [4]: 810 ± 140 µM

CCCCCCCCCCCCCCCCCCNCCc1c[nH]c2ccccc12 [Compound 2e, N-(2-(1H-indol-3-yl)ethyl)octadecan-1-amine]
TH+ neurons, % relative to control ± SEM [1]: 129.9 ± 3.5 %
Neuritic length/TH+ neuron, % relative to control ± SEM [2]: 157.3 ± 10.3 %

CCCCCCCCCCCCCCCCCCCCNCCc1c[nH]c2ccccc12 [Compound 2f]
TH+ neurons, % relative to control ± SEM [1]: 128.9 ± 3.4 %
Neuritic length/TH+ neuron, % relative to control ± SEM [2]: 132.6 ± 6.2 %

CCCCCCCCCCCCCCCCCCCCCCCNCCc1c[nH]c2ccccc12 [Compound 2g, N-(2-(1 H-indol-3-yl)ethyl)tricosan-1-amine]
TH+ neurons, % relative to control ± SEM [1]: 129.6 ± 3.5 %
Neuritic length/TH+ neuron, % relative to control ± SEM [2]: 141.2 ± 5.0 %
IC50 [4]: 670 µM

OCCCCCCCCCCCCCCCNCCc1c[nH]c2ccccc12 [Compound 2i, N-(2-(1H-indol-3-yl)ethyl)-15-hydroxypentadecanamine]
TH+ neurons, % relative to control ± SEM [1]: 129.4 ± 5.0 %
Neuritic length/TH+ neuron, % relative to control ± SEM [2]: 160.8 ± 13.8 %
IC50 [4]: 730 ± 10 µM
IF/neurone (%) (fluorescence intensity per neurone) [3]: 44.0 ± 3.6 %

Cc1c(C)c2c(c(C)c1O)CCC(C)(C(=O)O)O2 (stereo not shown) [Trolox ®, reference compound]
IC50 [4]: 550 ± 20 µM
IF/neurone (%) (fluorescence intensity per neurone) [3]: 44.0 ± 2.8 %

CCCC(=O)Nc1ncnc2c1ncn2[C@@H]1O[C@@H]2COP(=O)(O)O[C@H]2[C@H]1OC(=O)CCC [db-AMPc, dibutyryl-AMP cyclic, reference compound]
TH+ neurons, % relative to control ± SEM [1]: 149.9 ± 3.6%
Neuritic length/TH+ neuron, % relative to control ± SEM [2]: 333.1 ± 8.7 %
